Entries after “also recorded” stand apart in the source; their conditions may differ. Like-named read-outs stand apart in the source and are kept apart here.
Assays:
[1] = system: Dengue virus serotype 2 (DENV2), strain New Guinea C; assay: Antiviral evaluation; assay type: cell-based; conditions: HFF-1 cells; for EC50: MOI 0.1, AUC of viral burden over 2 days; for viral burden in all treatment arms: all concentrations
[2] = system: HFF-1 cells; assay: WST-1 cell proliferation assay, uninfected HFF-1 cells; conditions: uninfected HFF-1 cells; for cytotoxicity in uninfected cells: evaluated concentrations; for CC50: 72 h
[3] = as above; conditions: human
[4] = system: SK-N-MC cells; assay: WST-1 cell proliferation assay, uninfected SK-N-MC cells; conditions: uninfected SK-N-MC cells; for cytotoxicity in uninfected cells: evaluated concentrations; for CC50: 72 h
[5] = as above; conditions: human
[6] = system: Dengue virus serotype 2 (DENV2), strain New Guinea C; assay: Antiviral evaluation; assay type: cell-based; conditions: SK-N-MC cells; for EC50: MOI 0.1, AUC of viral burden over 4 days
[7] = system: HUH-7 cells; assay: WST-1 cell proliferation assay, uninfected HUH-7 cells; conditions: uninfected HUH-7 cells; for cytotoxicity in uninfected cells: evaluated concentrations; for CC50: 72 h
[8] = as above; conditions: human
[9] = system: Dengue virus serotype 2 (DENV2), strain New Guinea C; assay: Antiviral evaluation; assay type: cell-based; conditions: for EC50: MOI 0.01, AUC of viral burden over 3 days
[10] = system: DENV-infected HUH-7 cells; assay: WST-1 cell viability assay, DENV-infected HUH-7 cells; assay type: cell-based, human; conditions: MOI 0.01, 3 days
[11] = system: DENV-infected HFF-1 cells; assay: WST-1 cell viability assay, DENV-infected HFF-1 cells; assay type: cell-based, human; conditions: MOI 1, 3 days
[12] = system: DENV-infected SK-N-MC cells; assay: WST-1 cell viability assay, DENV-infected SK-N-MC cells; assay type: cell-based, human; conditions: MOI 0.1, 3 days
[13] = system: Dengue virus serotype 2 (DENV2), strain New Guinea C; assay: Combination drug assay UV-4B and IFN, DENV-infected SK-N-MC cells, plaque assay; assay type: cell-based; conditions: 400 µM
[14] = system: Dengue virus serotype 2 (DENV2), strain New Guinea C; assay: Combination drug assay UV-4B and IFN, DENV-infected HUH-7 cells, plaque assay; assay type: cell-based; conditions: day 2, 25 µM
[15] = Phase I study, one-time dose of 1000 mg; cited from earlier work

Compound | EC50 ([1]; Dengue virus, DENV2, 48 h) [µM] | viral burden in all treatment arms [1] | cytotoxicity in uninfected cells [2] | CC50 at 72 h [3] [µM] | cytotoxicity in uninfected cells [4] | CC50 at 72 h [5] [µM] | EC50 ([6]; Dengue virus, DENV2, 96 h) [µM] | cytotoxicity in uninfected cells [7] | CC50 at 72 h [8] [µM] | EC50 ([9]; HUH-7 cells, read-out: EC50) [µM] | cell viability of infected cells [10] | cell viability of infected cells [11] | cell viability of infected cells [12] | CC50 [2] | CC50 [4] | CC50 [7] | further results
NC(=O)c1nc(F)c[nH]c1=O [FAV, favipiravir] | > 500 | completely ineffective | no cytotoxicity | > 500 | no cytotoxicity | > 500 | 288 | no cytotoxicity | > 500 | 149 | limited effect on cell health | limited effect on cell health | limited effect on cell health |  |  |  | lowering of viral titers ([6]; Day 2, 250 µM): approximately 0.6 log10 PFU/mL; total reduction of viral titers ([6]; Day 2, 500 µM): 1.3 log10 PFU/mL; additional decrease of viral titers over 250 µM ([6]; Day 2, 500 µM versus 250 µM): 0.7 log10 PFU/mL; EC50 ([9]; Dengue virus, DENV2, Huh-7, 72 h, HUH-7 cells): 147 µM; decrease in titers relative to the control ([9]; HUH-7 cells, 250 µM): approximate tenfold decrease; maximum reduction in viral titers ([9]; HUH-7 cells, highest concentration evaluated): 1.2 log10 PFU/mL
CC(C)OC(=O)[C@H](C)N[P@](=O)(OC[C@H]1O[C@@H](n2ccc(=O)[nH]c2=O)[C@](C)(F)[C@@H]1O)Oc1ccccc1 [SOF, sofosbuvir] | > 10 | comparable to the no treatment control | no cytotoxicity | > 10 | no cytotoxicity | > 10 | > 10 | no cytotoxicity | > 10 |  | yielded improvements in cell viability | did not change relative to the uninfected control | minimal changes in cell viability |  |  |  | viral burden in all treatment arms ([6]; all concentrations): comparable to the no treatment control; EC50 ([9]; Dengue virus, DENV2, 72 h, HUH-7 cells, read-out: EC50): 6.96 µM; viral titers ([9]; HUH-7 cells, 10 µM): below the limit of detection; reduction in viral burden ([9]; HUH-7 cells, 4 and 6 µM): ~100 fold
COCCCCCCCCCN1C[C@H](O)[C@@H](O)[C@H](O)[C@H]1CO.Cl [UV-4B] |  |  |  |  |  |  |  |  |  | 23.8 | remained comparable to the infected control; also recorded: declines in cell viability observed at UV-4B concentrations of 100 and 400 µM | moderate declines in viability observed at 100 and 400 µM | concentrations ≥ 25 µM caused dramatic increases in cell viability | > 400 µM | > 400 µM | 135 µM | EC50 [1]: 37.4 µM; decline in peak viral titers, monotherapy [13]: 3.8 log10 PFU/mL; reduction of viral titers, monotherapy [14]: 1.7 log10 PFU/mL; EC50 [6]: 49.4 µM; decrease in viral titers ([6]; day 2, 25 µM): 1.6 log10 PFU/mL; decrease in viral titers ([6]; day 2, 400 µM): 3.6 log10 PFU/mL; Cmax [15]: ~40 µM
interferon-alpha [IFN] |  |  |  |  |  |  |  |  |  |  | concentrations ≥ 10 IU/mL markedly increased cell viability | Percent cell viability stayed constant |  | >10,000 IU/mL | 1074 IU/mL | >10,000 IU/mL | reduction of peak titers ([9]; HUH-7 cells, 100 IU/mL): 2.4 log10 PFU/mL; effect on production of infectious virus ([9]; HUH-7 cells, 10,000 IU/mL): completely curbed the production of infectious virus

From article PMC8145572 (Viruses, 2021)
